The text below walks through data of US8552048B2, “Phosphoramidate alkylator prodrugs for the treatment of cancer” (Threshold Pharmaceuticals, Inc., priority 2006, dated 2013).

Molecules are shown by their SMILES.

Data set [1] can be described thus: Pharmacokinetics after repeated administration (Q7D×3) to rats. Format: in vivo. As for the experimental part: Each rat received a 30 minute infusion once a week for three weeks (Q7D×3).
Br-IPM being capable of reacting with water and a number of other nucleophiles, for HPLC analysis of Br-IPM, the plasma obtained was frozen and treated with NaF and potassium oxalate.

A short description of data set [2]: Pharmacokinetics after repeated administration (Q7D×3) to dogs. It is filed as in vivo. An excerpt: These changes were reversible.
The subject of data set [3] is IGROV1 human ovarian cancer cells. Briefly: IGROV1 ovarian cancer xenograft. To be noted: CDDP 4 mg/kg and 6 mg/kg i.p. Q7D×2 (both doses). It is filed as in vivo. The protocol: Forty nude mice were subcutaneously implanted with IGROV1 human ovarian cancer cells (5×10^6 cells/mouse). The tumor volumes were measured twice weekly starting on day 7. On day 8, tumor volumes reached about 97.7±3.9 mm^3. The mice were randomized in 3 treatment groups that were administered the following: CDDP (4 mg/kg, ip, Q7D×2), CDDP (6 mg/kg, i.p. Q7D×2), and TH302 (75 mg/kg, i.v., Q7D×2). A control group of mice were administered saline. […] Forty five days after the first administration of TH302, tumor growth inhibition was 66%. The tumor growth delay (to 300 mm^3) was 19 days.

Data set [4] deals with HT29 Human colorectal cancer cells. As to the kind of experiment: HT29 xenograft, TH302 in combination with irinotecan. Format: in vivo, mice. The settings on record: CPT-11 monotherapy 50 mg/kg i.p. Q7D×3, vs control group. The protocol:
TH302 and irinotecan (CPT-11) were formulated as follows: TH302 (7.5 mg/mL) in saline and CPT-11 (5 mg/mL) in 2% Tween80-saline. The formulations were filtered through a 0.2 μm filter then delivered to animals within one hour after it was made. HT29 Human colorectal cancer cells were prepared in 50% matrigel and 50% RPMI 1640 medium and implanted (3×10^6 cells) in the subcutaneous space of the right flank of 90 mice (0.2 mL/mouse). Tumor volumes reached about 160 mm^3 on day 12 day post implantation. Seventy two animals with similar tumor size were chosen for treatment after randomization. The remaining mice were used as no treatment control.
The mice were administered TH302 intravenously at 75 mg/kg, once per week for 2 weeks (Q7D×2, i.v.) alone, and in combination with CPT-11, administered at, 50 mg/kg, (Q7D×3, intraperitoneally (i.p.)). […] After dosing started, tumor volumes were measured twice per week. […] For the mice administered CPT-11 alone, i.e., those on CPT-11 monotherapy, 41% tumor growth inhibition was observed compared to the control group of mice.

Data set [5] concerns PC-3 human prostate tumor. As to the kind of experiment: GFP PC3 prostate orthotopic model. It is filed as in vivo, mice.
Data set [6] concerns PC-3 human prostate cells. Briefly: PC-3 luciferase intracardiac metastasis model (bioluminescence). It is filed as in vivo, nude mice. The protocol: Male nude mice were injected into their left ventricle with PC-3 human prostate cells (3×10^6) transfected with the gene for luciferase. The success of the intracardiac transfections was verified by a bioluminescence scan after the injection. On day 14, the mice with established bone tumor burden were randomized into four treatment groups (N=10): Taxotere® alone (20 mg/kg once a week for three weeks, i.v.), TH302 alone (50 mg/kg daily, 5 days a week for 3 weeks), combination treatment with both agents, and vehicle. Bioluminescence imaging was performed under anesthesia using an IVIS 50 optical imaging system.

The mark [7] stands for this setting: bromo-IPM in rats after TH302 12.5 mg/kg Q7D×3, Day 15.
Where [8] appears, read: bromo-IPM in rats after TH302 25 mg/kg Q7D×3, Day 15.
[9] abbreviates: bromo-IPM in rats after TH302 50 mg/kg Q7D×3, Day 15.
[10] abbreviates: bromo-IPM in dogs after TH302 8 mg/kg Q7D×3, Day 15.
Where [11] appears, read: bromo-IPM in dogs after TH302 16 mg/kg Q7D×3, Day 15.

In the case of `O=P(O)(NCCBr)NCCBr` [Br-IPM, HO—P(═O)(NHCH2CH2Br)2], the AUC in data set [1] (setting [7]) came to 107 ng·h/mL; in data set [1] (setting [8]) it was 97 ng·h/mL; in data set [1] (setting [9]) it was 143 ng·h/mL. Also, the Cmax in data set [1] (setting [7]) worked out at 286 ng/mL; in data set [1] (setting [8]), 375 ng/mL; in data set [1] (setting [9]), 385 ng/mL; in data set [2] (setting [10]) it was 62.7 ng/mL; in data set [2] (setting [11]) it was 146 ng/mL. The half-life in data set [1] (setting [7]) was 8.88 min; in data set [1] (setting [8]) it was 8.28 min; in data set [1] (setting [9]), 23 min; in data set [2] (setting [11]) it was 18.3 min. The “AUC of the active toxin Br-IPM” value in data set [1] (rats, after TH302 25 mg/kg) is reported as “about 97 h×ng/mL”; in data set [2] (dogs, after TH302 8 mg/kg), “about 21.8 h×ng/mL”. Besides, the results for the AUClast in data set [2] (setting [10]) and in data set [2] (setting [11]) were 21.8 ng·h/mL and 60.7 ng·h/mL, respectively.

For `N.N.[Cl][Pt][Cl]` [CDDP, reference compound], the “reduction in tumor volume” value in data set [3] was “did not show significant reduction in tumor volume”.

Consider `CCc1c2c(nc3ccc(OC(=O)N4CCC(N5CCCCC5)CC4)cc13)-c1cc3c(c(=O)n1C2)COC(=O)[C@]3(O)CC` [CPT-11, irinotecan], for which, in data set [4], the tumor growth inhibition is 41%.

Regarding `CC(=O)O[C@@]12CO[C@@H]1C[C@H](O)[C@@]1(C)C(=O)[C@H](O)C3=C(C)[C@@H](OC(=O)[C@H](O)[C@@H](NC(=O)OC(C)(C)C)c4ccccc4)C[C@@](O)([C@@H](OC(=O)c4ccccc4)[C@H]21)C3(C)C` [Taxotere®, Docetaxel], the “tumor volume regressed to” value in data set [5] (Taxotere 12 mg/kg once a week for two weeks, alone or with TH302) is listed as 21±15 mm^3. The “tumor volume on day 62” value in data set [5] (Taxotere alone or with TH302, P<0.01 combination vs Taxotere alone) is listed as 766 mm^3. Moreover, in data set [5] (single agent, Taxotere 12 mg/kg once a week for two weeks), the “tumor growth delay (TGD)” value is listed as 31 days. The “toxicities (weight loss, deaths)” value in data set [6] (TH302 50 mg/kg daily 5 days a week for 3 weeks, Taxotere 20 mg/kg once a week for three weeks i.v., or both) was “weight loss and a toxicity-related death”. Besides, the “bone metastases and soft tissue tumor burden compared to vehicle” value in data set [6] (Taxotere alone 20 mg/kg once a week for three weeks, i.v.) is “significant reduction in bone metastases and soft tissue tumor burden”.

The AUC is the area under the concentration-time curve, a measure of exposure. Higher therefore signals high exposure. The Cmax is the peak of the concentration-time curve. Usually half-life stands for the time needed for the level to fall by half in the phase considered. Read a low half-life as fast loss.
